# Assay results taken from PubChem BioAssay (NCI).
#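 Five compound concentrations were applied to cells in 96-well plates for 48 hours; endpoints were derived by simple linear interpolation of the resulting dose-response curve. GI50 is the concentration that inhibits growth by half. TGI denotes the concentration required for complete inhibition of growth.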
# Assays:
# Experiment in all cases: inhibition of tumour cell growth, NCI panel, 48 h
# [1] = test system: CAKI-1 renal
# [2] = test system: SR leukemia
# [3] = test system: HOP-62 NSCLC
# [4] = test system: OVCAR-3 ovarian
# [5] = test system: LOX IMVI melanoma
# [6] = test system: NCI-H522 lung
# [7] = test system: MOLT-4 leukemia
# [8] = test system: HCC-2998 colon
# [9] = test system: K-562 leukemia
# [10] = test system: UACC-62 melanoma
# [11] = test system: SK-MEL-28 melanoma
# [12] = test system: HCT-15 colon
# [13] = test system: UO-31 renal
# [14] = test system: OVCAR-8 ovarian
# [15] = test system: EKVX NSCLC
# [16] = test system: SF-295 CNS
# [17] = test system: HS 578T breast
# [18] = test system: 786-0 renal
# [19] = test system: NCI-H226 lung
# [20] = test system: MCF7 breast
# [21] = test system: COLO 205 colon
# [22] = test system: BT-549 breast
# [23] = test system: M14 melanoma
# [24] = test system: A498 renal
# [25] = test system: ACHN renal
# [26] = test system: NCI/ADR-RES ovarian
# [27] = test system: HT29 colon
# [28] = test system: IGROV1 ovarian
# [29] = test system: OVCAR-4 ovarian
# [30] = test system: SNB-19 CNS
# [31] = test system: NCI-H23 lung
# [32] = test system: RPMI-8226 leukemia
# [33] = test system: NCI-H460 lung
# [34] = test system: RXF 393 renal
# [35] = test system: U251 CNS
# [36] = test system: SW-620 colon
# [37] = test system: MALME-3M melanoma
# [38] = test system: SF-268 CNS
# [39] = test system: MDA-MB-231 breast
# [40] = test system: SK-MEL-5 melanoma
# [41] = test system: SF-539 CNS
# [42] = test system: HOP-92 NSCLC
# [43] = test system: TK-10 renal
# [44] = test system: T-47D breast
# [45] = test system: SNB-75 CNS
# [46] = test system: DU-145 prostate
# [47] = test system: HCT-116 colon
# [48] = test system: A549 NSCLC
# [49] = test system: HL-60(TB) leukemia
# [50] = test system: SK-MEL-2 melanoma
# [51] = test system: CCRF-CEM leukemia
# [52] = test system: KM12 colon
# [53] = test system: SN12C renal
# [54] = test system: MDA-MB-435
# [55] = test system: UACC-257 melanoma
# [56] = test system: OVCAR-5 ovarian
# [57] = test system: SK-OV-3 ovarian
# [58] = test system: PC-3 prostate
compound,measurement,setting,value
CN(C)c1ccc(/C=C(\C#N)c2nc3ccccc3n2C)cc1,GI50,[1],5.16 µM
same,TGI,[1],> 90.6 µM
same,GI50,[2],0.279 µM
same,TGI,[2],> 100 µM
same,GI50,[3],13.8 µM
same,TGI,[3],> 100 µM
same,GI50,[4],1.33 µM
same,TGI,[4],3.73 µM
same,GI50,[5],5.68 µM
same,TGI,[5],> 62.2 µM
same,GI50,[6],1.7 µM
same,TGI,[6],16 µM
same,GI50,[7],7.03 µM
same,TGI,[7],> 38 µM
same,GI50,[8],4.43 µM
same,TGI,[8],27.7 µM
same,GI50,[9],0.249 µM
same,TGI,[9],10.8 µM
same,GI50,[10],2.04 µM
same,TGI,[10],37.2 µM
same,GI50,[11],8.8 µM
same,TGI,[11],> 78.2 µM
same,GI50,[12],1.29 µM
same,TGI,[12],> 87.6 µM
same,GI50,[13],6.96 µM
same,TGI,[13],> 100 µM
same,GI50,[14],4.79 µM
same,TGI,[14],> 72.9 µM
same,GI50,[15],8.65 µM
same,TGI,[15],> 100 µM
same,GI50,[16],1.9 µM
same,TGI,[16],16.9 µM
same,GI50,[17],2.84 µM
same,TGI,[17],> 26.5 µM
same,GI50,[18],8.77 µM
same,TGI,[18],99 µM
same,GI50,[19],9.22 µM
same,TGI,[19],> 81.3 µM
same,GI50,[20],0.612 µM
same,TGI,[20],> 76 µM
same,GI50,[21],1.63 µM
same,TGI,[21],9.26 µM
same,GI50,[22],3.4 µM
same,TGI,[22],31.2 µM
same,GI50,[23],2.42 µM
same,TGI,[23],> 64.9 µM
same,GI50,[24],0.729 µM
same,TGI,[24],6.82 µM
same,GI50,[25],11.6 µM
same,TGI,[25],> 100 µM
same,GI50,[26],1.47 µM
same,TGI,[26],11.1 µM
same,GI50,[27],0.742 µM
same,TGI,[27],> 33.3 µM
same,GI50,[28],5.13 µM
same,TGI,[28],> 100 µM
same,GI50,[29],4.22 µM
same,TGI,[29],> 21.9 µM
same,GI50,[30],7.27 µM
same,TGI,[30],> 100 µM
same,GI50,[31],4.51 µM
same,TGI,[31],> 88.5 µM
same,GI50,[32],2.85 µM
same,TGI,[32],14.7 µM
same,GI50,[33],3.2 µM
same,TGI,[33],17.9 µM
same,GI50,[34],2.77 µM
same,TGI,[34],> 24.8 µM
same,GI50,[35],3.72 µM
same,TGI,[35],> 100 µM
same,GI50,[36],0.921 µM
same,TGI,[36],> 60.1 µM
same,GI50,[37],6.17 µM
same,TGI,[37],60.6 µM
same,GI50,[38],5.96 µM
same,TGI,[38],> 95.1 µM
same,GI50,[39],5.41 µM
same,TGI,[39],> 100 µM
same,GI50,[40],1.92 µM
same,TGI,[40],13.6 µM
same,GI50,[41],2.24 µM
same,TGI,[41],6.94 µM
same,GI50,[42],5.68 µM
same,TGI,[42],28.9 µM
same,GI50,[43],3.24 µM
same,TGI,[43],67.9 µM
same,GI50,[44],3.08 µM
same,TGI,[44],27.2 µM
same,GI50,[45],2.54 µM
same,TGI,[45],> 31.3 µM
same,GI50,[46],2.99 µM
same,TGI,[46],13.1 µM
same,GI50,[47],1.41 µM
same,TGI,[47],> 100 µM
same,GI50,[48],4.53 µM
same,TGI,[48],> 100 µM
same,GI50,[49],3.77 µM
same,TGI,[49],> 31.4 µM
same,GI50,[50],3.9 µM
same,TGI,[50],68.5 µM
same,GI50,[51],3.36 µM
same,TGI,[51],16 µM
same,GI50,[52],1.59 µM
same,TGI,[52],18.4 µM
same,GI50,[53],11.6 µM
same,TGI,[53],> 100 µM
same,GI50,[54],0.251 µM
same,TGI,[54],3.13 µM
same,GI50,[55],20.2 µM
same,TGI,[55],> 100 µM
same,GI50,[56],8.49 µM
same,TGI,[56],49.8 µM
same,GI50,[57],4.09 µM
same,TGI,[57],71.3 µM
same,GI50,[58],3.91 µM
same,TGI,[58],> 48.8 µM
